# Results taken from patent publication US11168093B2, “Thienopyridine inhibitors of RIPK2” (Celgene Corporation, priority 2018, dated 2021).
# Target: RIPK2 enzyme (Homo sapiens (Human), UniProt O43353)
# Experiment: RIPK2 inhibition assay, TR-FRET LanthaScreen Tracer 199 screening assay
# Type: binding
# Settings: 5 nM RIPK2 enzyme, Tracer 199 at 50 nM, Eu-anti-His Antibody at 2 nM, 1 hour incubation
# Procedure: All data was collected using a standard TR-FRET screening assay: LanthaScreen Tracer 199 at 50 nM, Eu-anti-His Antibody at 2 nM, 5 nM RIPK2 enzyme, and 1× Kinase Reaction Buffer. There was a 1 hour incubation prior to read. TR-FRET signal of the interaction (340Ex/665Em/615Em) was read at room temperature with standard setting. Background was subtracted of wells containing no enzyme. Percent inhibition was based on uninhibited controls log (inhibitor) vs. response. Variable slope equation was used with no constraints: Log Y=Bottom+(Top−Bottom)/(1+10^((Log IC50−X)*Hill Slope)).
# The compound numbers correspond to the compound numbers above.
# RIPK2 enzyme, sequence (O43353 whole entry): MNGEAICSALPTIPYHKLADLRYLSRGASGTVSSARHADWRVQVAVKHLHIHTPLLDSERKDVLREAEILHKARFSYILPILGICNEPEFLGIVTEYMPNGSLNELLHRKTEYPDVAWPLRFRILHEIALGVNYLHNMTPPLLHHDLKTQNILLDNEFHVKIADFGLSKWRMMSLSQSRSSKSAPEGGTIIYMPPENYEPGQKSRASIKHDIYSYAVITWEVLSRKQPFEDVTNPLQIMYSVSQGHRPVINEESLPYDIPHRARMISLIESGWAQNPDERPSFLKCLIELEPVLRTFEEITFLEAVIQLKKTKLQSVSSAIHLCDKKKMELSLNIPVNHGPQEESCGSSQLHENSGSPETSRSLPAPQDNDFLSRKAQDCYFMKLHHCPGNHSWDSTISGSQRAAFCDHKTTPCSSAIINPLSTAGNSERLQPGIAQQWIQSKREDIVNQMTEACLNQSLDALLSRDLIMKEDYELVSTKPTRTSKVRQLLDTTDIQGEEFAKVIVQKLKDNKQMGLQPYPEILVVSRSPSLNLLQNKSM
row,IC50,SMILES
1,10 to 20 nM,"CC1C(c2cc3c(Nc4ccc5scnc5c4F)c(F)cnc3s2)CCCN1C (single isomer, unassigned) [Example 125b, N-(2-(1,2-dimethylpiperidin-3-yl)-5-fluorothieno[2,3-b]pyridin-4-yl)-4-fluorobenzo[d]thiazol-5-amine]"
2,10 to 20 nM,"CC1C(c2cc3c(Nc4c(F)cc5scnc5c4F)ccnc3s2)CCN1CCO (centres unmarked) [Example 95, 2-(3-(4-((4,6-difluorobenzo[d]thiazol-5-yl)amino)thieno[2,3-b]pyridin-2-yl)-2-methyl-pyrrolidin-1-yl)ethan-1-ol]"
3,≤ 10 nM,"CC(=O)N1CCCC=C(c2cc3c(Nc4ccc5scnc5c4)ccnc3s2)C1 [Example 114, 1-(6-(4-(benzo[d]thiazol-5-ylamino)thieno[2,3-b]pyridin-2-yl)-2,3,4,7-tetrahydro-1H-azepin-1-yl)ethan-1-one]"
4,≥ 50 nM,"CCN1CCC(c2cc3c(Nc4c(F)cc5scnc5c4F)ccnc3s2)C12CCOCC2 (centres unmarked) [Example 104, N-(2-(1-ethyl-8-oxa-1-azaspiro[4.5]decan-4-yl)thieno[2,3-b]pyridin-4-yl)-4,6-difluorobenzo[d]thiazol-5-amine]"
5,≤ 10 nM,"CC1(C)NCCC1c1cc2c(Nc3cc4ncsc4cc3F)ccnc2s1 (centres unmarked) [Example 78a, N-(2-(2,2-dimethylpyrrolidin-3-yl)thieno[2,3-b]pyridin-4-yl)-6-fluorobenzo[d]thiazol-5-amine]"
6,≥ 50 nM,"CCN1CCC(c2cc3c(Nc4ccc5scnc5c4)ccnc3s2)C12CCOCC2 (centres unmarked) [Example 48, N-(2-(1-ethyl-8-oxa-1-azaspiro[4.5]decan-4-yl)thieno[2,3-b]pyridin-4-yl)benzo[d]thiazol-5-amine]"
7,20 to 50 nM,"CC1NCCCC1c1cc2c(Nc3ccc4scnc4c3)c(F)cnc2s1 (centres unmarked) [Example 119, N-(5-fluoro-2-(2-methylpiperidin-3-yl)thieno[2,3-b]pyridin-4-yl)benzo[d]thiazol-5-amine]"
8,≤ 10 nM,"CCN1CC=C(c2cc3c(Nc4ccc5scnc5c4)ccnc3s2)C12CCOCC2 [Example 47, N-(2-(1-ethyl-8-oxa-1-azaspiro[4.5]dec-3-en-4-yl)thieno[2,3-b]pyridin-4-yl)benzo[d]thiazol-5-amine]"
9,10 to 20 nM,"CC1C(c2cc3c(Nc4cc5ncsc5cc4F)ccnc3s2)CCN1CCO (centres unmarked) [Example 77, 2-(3-(4-((6-fluorobenzo[d]thiazol-5-yl)amino)thieno[2,3-b]pyridin-2-yl)-2-methylpyrrolidin-1-yl)ethan-1-ol]"
10,20 to 50 nM,"CC1C(c2cc3c(Nc4c(F)cc5scnc5c4F)c(F)cnc3s2)CCCN1C (single isomer, unassigned) [Example 127a]"
11,10 to 20 nM,"CN1CC=C(c2cc3c(Nc4ccc5scnc5c4)ccnc3s2)C12CCOC2 (centres unmarked) [Example 41, N-(2-(1-methyl-7-oxa-1-azaspiro[4.4]non-3-en-4-yl)thieno[2,3-b]pyridin-4-yl)benzo[d]thiazol-5-amine]"
12,≤ 10 nM,"CC1C(c2cc3c(Nc4ccc5scnc5c4)ccnc3s2)CCCN1C (centres unmarked) [Example 4, N-(2-(1,2-dimethylpiperidin-3-yl)thieno[2,3-b]pyridin-4-yl)benzo[d]thiazol-5-amine]"
13,≤ 10 nM,CC1C(c2cc3c(Nc4c(F)cc5scnc5c4F)c(F)cnc3s2)CCCN1C (centres unmarked) [Example 127b]
14,20 to 50 nM,"CN1CCC(c2cc3c(Nc4ccc5scnc5c4)ccnc3s2)C12CCOC2 (centres unmarked) [Example 43, N-(2-(1-methyl-7-oxa-1-azaspiro[4.4]nonan-4-yl)thieno[2,3-b]pyridin-4-yl)benzo[d]thiazol-5-amine]"
15,10 to 20 nM,"Fc1cc2scnc2c(F)c1Nc1ccnc2sc(C3CCNC34CCOCC4)cc12 (centres unmarked) [Example 102, N-(2-(8-oxa-1-azaspiro[4.5]decan-4-yl)thieno[2,3-b]pyridin-4-yl)-4,6-difluorobenzo[d]thiazol-5-amine]"
16,≤ 10 nM,"CC1C(c2cc3c(Nc4ccc5scnc5c4)c(F)cnc3s2)CCCN1C (single isomer, unassigned) [Example 120b, N-(2-(1,2-dimethylpiperidin-3-yl)-5-fluorothieno[2,3-b]pyridin-4-yl)benzo[d]-thiazol-5-amine]"
17,≤ 10 nM,"CN1CCCC=C(c2cc3c(Nc4ccc5scnc5c4)ccnc3s2)C1 [Example 113, N-(2-(1-methyl-2,5,6,7-tetrahydro-1H-azepin-3-yl)thieno[2,3-b]pyridin-4-yl)benzo[d]thiazol-5-amine]"
18,10 to 20 nM,"CCN1CCC(c2cc3c(Nc4ccc5scnc5c4F)ccnc3s2)C1(C)C (centres unmarked) [Example 91, N-(2-(1-ethyl-2,2-dimethylpyrrolidin-3-yl)thieno[2,3-b]pyridin-4-yl)-4-fluorobenzo[d]thiazol-5-amine]"
19,≤ 10 nM,CC1NCCCCC1c1cc2c(Nc3cc4ncsc4cc3F)ccnc2s1 (centres unmarked) [Example 117c]

row,IC50,SMILES
1,≤ 10 nM,"C[C@@H]1NCCC[C@@H]1c1cc2c(Nc3ccc4scnc4c3F)ccnc2s1 [Example 57b, 4-fluoro-N-(2-((2S,3S)-2-methylpiperidin-3-yl)thieno-[2,3-b]pyridin-4-yl)benzo[d]thiazol-5-amine]"
2,20 to 50 nM,"CN1CCC(c2cc3c(Nc4c(F)cc5scnc5c4F)ccnc3s2)C12CCOCC2 (centres unmarked) [Example 103, 4,6-difluoro-N-(2-(1-methyl-8-oxa-1-azaspiro[4.5]decan-4-yl)thieno[2,3-b]pyridin-4-yl)benzo[d]thiazol-5-amine]"
3,≥ 50 nM,"Fc1cc2scnc2cc1Nc1ccnc2sc(C3CCNC34CCOC4)cc12 (centres unmarked) [Example 81, N-(2-(7-oxa-1-azaspiro[4.4]nonan-4-yl)thieno[2,3-b]pyridin-4-yl)-6-fluorobenzo[d]thiazol-5-amine]"
4,≤ 10 nM,"CC1(C)C(c2cc3c(Nc4c(F)cc5scnc5c4F)ccnc3s2)CCN1CCO (centres unmarked) [Example 98, 2-(3-(4-((4,6-difluorobenzo[d]thiazol-5-yl)amino)thieno[2,3-b]pyridin-2-yl)-2,2-dimethylpyrrolidin-1-yl)ethan-1-ol]"
5,≤ 10 nM,"COCCN1CCCC(c2cc3c(Nc4ccc5scnc5c4)ccnc3s2)C1C (centres unmarked) [Example 13, N-(2-(1-(2-methoxyethyl)-2-methylpiperidin-3-yl)thieno[2,3-b]pyridin-4-yl)benzo[d]thiazol-5-amine]"
6,≤ 10 nM,"CC(=O)N1CCCC(c2cc3c(Nc4ccc5scnc5c4)ccnc3s2)C1C (centres unmarked) [Example 10, 1-(3-(4-(benzo[d]thiazol-5-ylamino)thieno[2,3-b]pyridin-2-yl)-2-methylpiperidin-1-yl)ethan-1-one]"
7,≤ 10 nM,"CC1(C)NCCC1c1cc2c(Nc3ccc4scnc4c3)ccnc2s1 (centres unmarked) [Example 33, N-(2-(2,2-dimethylpyrrolidin-3-yl)thieno[2,3-b]pyridin-4-yl)benzo[d]thiazol-5-amine]"
8,10 to 20 nM,"c1cc(Nc2ccc3scnc3c2)c2cc(C3CCNC34CCOC4)sc2n1 (centres unmarked) [Example 42, N-(2-(7-oxa-1-azaspiro[4.4]nonan-4-yl)thieno[2,3-b]pyridin-4-yl)benzo[d]thiazol-5-amine]"
9,10 to 20 nM,"CN1CCC(c2cc3c(Nc4ccc5scnc5c4)ccnc3s2)C1(C)C (centres unmarked) [Example 35, N-(2-(1,2,2-trimethylpyrrolidin-3-yl)thieno[2,3-b]pyridin-4-yl)benzo[d]thiazol-5-amine]"
10,≤ 10 nM,"CCN1CCC[C@@H](c2cc3c(Nc4cc5ncsc5cc4F)ccnc3s2)[C@H]1C [Example 53b, N-(2-((2R)-1-ethyl-2-methylpiperidin-3-yl)thieno[2,3-b]pyridin-4-yl)-6-fluorobenzo[d]thiazol-5-amine]"
11,≤ 10 nM,"CCN1CCCC(c2cc3c(Nc4ccc5scnc5c4)ccnc3s2)CC1 (centres unmarked) [Example 110, N-(2-(1-ethylazepan-4-yl)thieno[2,3-b]pyridin-4-yl)benzo[d]thiazol-5-amine]"
12,10 to 20 nM,"Fc1cc2scnc2c(F)c1Nc1ccnc2sc(C3CCNC34CCOC4)cc12 (centres unmarked) [Example 99, N-(2-(7-oxa-1-azaspiro[4.4]nonan-4-yl)thieno[2,3-b]pyridin-4-yl)-4,6-difluorobenzo[d]thiazol-5-amine]"
13,≤ 10 nM,"COCC(=O)N1CCC=C(c2cc3c(Nc4ccc5scnc5c4)ccnc3s2)C1C (centres unmarked) [Example 11, 1-(5-(4-(benzo[d]thiazol-5-ylamino)thieno[2,3-b]pyridin-2-yl)-6-methyl-3,6-dihydro-pyridin-1(2H)-yl)-2-methoxyethan-1-one]"
14,≤ 10 nM,"C[C@H]1NCCC[C@H]1c1cc2c(Nc3ccc4scnc4c3F)ccnc2s1 [Example 56b, 4-fluoro-N-(2-((2R,3R)-2-methyl-piperidin-3-yl)thieno[2,3-b]pyridin-4-yl)benzo[d]thiazol-5-amine]"
15,≤ 10 nM,"CC1C(c2cc3c(Nc4ccc5scnc5c4)c(F)cnc3s2)CCCN1C (single isomer, unassigned) [Example 120c, N-(2-(1,2-dimethylpiperidin-3-yl)-5-fluorothieno[2,3-b]pyridin-4-yl)benzo[d]-thiazol-5-amine]"
16,≥ 50 nM,"Fc1cc2scnc2cc1Nc1ccnc2sc(C3CCNC34CCOCC4)cc12 (centres unmarked) [Example 84, N-(2-(8-oxa-1-azaspiro[4.5]decan-4-yl)thieno[2,3-b]pyridin-4-yl)-6-fluorobenzo[d]thiazol-5-amine]"
17,≤ 10 nM,"CC1NCCCC1c1cc2c(Nc3c(F)cc4scnc4c3F)c(F)cnc2s1 (centres unmarked) [Example 126a, 4,6-difluoro-N-(5-fluoro-2-(2-methylpiperidin-3-yl)thieno[2,3-b]pyridin-4-yl)benzo[d]thiazol-5-amine]"
18,≤ 10 nM,"C[C@H]1NCCC[C@@H]1c1cc2c(Nc3c(F)cc4scnc4c3F)ccnc2s1 [Example 67a, 4,6-difluoro-N-(2-((2R,3S)-2-methylpiperidin-3-yl)thieno[2,3-b]pyridin-4-yl)benzo[d]thiazol-5-amine]"
19,≤ 10 nM,"CCN1CC=C(c2cc3c(Nc4ccc5scnc5c4)ccnc3s2)C12CCOC2 (centres unmarked) [Example 44, N-(2-(1-ethyl-7-oxa-1-azaspiro[4.4]non-3-en-4-yl)thieno[2,3-b]pyridin-4-yl)benzo[d]thiazol-5-amine]"
